Test results published in patent US20250304635A1, “BIRINAPANT POLYMORPH H” (Medivir AB, priority 2022, published 2025).

Columns and labels:
Type in all cases: physicochemical
[1] = Stability study: material left open to air at room temperature and exposed to light for one month (HPLC, Karl Fischer); conditions: room temperature, exposed to light
Description: A stability study of birinapant form H was performed by leaving the material open to air at room temperature and exposed to light for one month. […] A stability study of birinapant form H was performed by leaving the material open to air at room temperature and exposed to light for one month.

[2] = Stability studies under elevated temperature and relative humidity; crystalline form by XRPD, birefringence by polarized light microscopy
Description: XRPD patterns were collected with a PANalytical Empyrean diffractometer using an incident beam of Cu radiation produced using a long, fine-focus source. An elliptically graded multilayer mirror was used to focus Cu Kα X-rays through the specimen and onto the detector. Prior to analysis, a silicon specimen (NIST SRM 640e) was analyzed to verify the observed position of the Si 111 peak is consistent with the NIST-certified position. A specimen of the sample was sandwiched between 3-μm-thick films and analyzed in transmission geometry. A beam-stop, short antiscatter extension, and antiscatter knife edge were used to minimize the background generated by air. Soller slits for the incident and diffracted beams were used to minimize broadening and asymmetry from axial divergence. Diffraction patterns were collected using a scanning position-sensitive detector (X′Celerator) located 240 mm from the specimen and Data Collector software v. 5.5. Additional stability studies under elevated temperature and relative humidity (RH) conditions were also performed. Samples of birinapant form H were subjected to various temperature and humidity conditions for up to 105 days, and samples were taken at 17, 33, and 105 days. For each sample the identity of the crystalline form of the sample was assessed using XRPD and the birefringence of the sample was assessed using polarized light microscopy. Additionally, XRPD patterns for several time points are provided for the 60° C. study, the 30° C./62% RH study, and the 40° C./75% RH study in FIGS. 6, 7, and 8, respectively. The time points shown are at the start of the study (top pattern), after 17 days (pattern second from top), after 33 days (pattern third from top), and after 105 days (bottom pattern). Additional stability studies under elevated temperature and relative humidity (RH) conditions were also performed. Samples of birinapant form H were subjected to various temperature and humidity conditions for up to 182 days, and samples were taken at […]. For each sample the identity of the crystalline form of the sample was assessed using XRPD and the birefringence of the sample was assessed using polarized light microscopy. The “RESULT” column indicates the form that was observed. Additionally, XRPD patterns for several time points are provided for the 60° C. study, the 30° C./62% RH study, and the 40° C./75% RH study in FIG. 9. The spectra shown in FIG. 9 correspond to the 60° C. study after 33 days (top trace), the 60° C. study after 182 days (trace second from top), the 30° C./62% RH study after 33 days (trace third from top), the 30° C./62% RH study after 182 days (trace fourth from top), the 40° C./75% RH study after 33 days (trace fifth from top), and the 40° C./75% RH study after 182 days (trace sixth from top). A representative XRPD trace for birinapant form H prior to stressing is also shown for comparison (bottom trace).

[3] = Dynamic vapor sorption (DVS) study; set-up: Hysteresis: unit not given here; conditions: 25° C.
Description: Automated vapor sorption (VS) data were collected on a Surface Measurement System DVS Intrinsic instrument. Samples were not dried prior to analysis. Sorption and desorption data were collected over a range from 5% to 95% RH at 10% RH increments under a nitrogen purge. The equilibrium criterion used for analysis was less than 0.0100% weight change in 5 minutes with a maximum equilibration time of 3 hours. Data were not corrected for the initial moisture content of the samples. This study was performed at a temperature of 25° C., and the relative humidity was cycled between about 5% and about 95%.

TGA study = conditions: between about 25° C. and 300° C.
Description: TGA analysis was performed using a Mettler-Toledo TGA/DSC3 analyzer. Temperature and enthalpy adjustments were performed using indium, tin, and zinc, and then verified with indium. The balance was verified with calcium oxalate. The sample was placed in an open aluminum pan. The pan was hermetically sealed, the lid pierced, and then inserted into the TG furnace. A weighed aluminum pan configured as the sample pan was placed on the reference platform. The furnace was heated under nitrogen. Each sample was heated from ambient temperature to 350° C. at 10° C./min. The thermograms were plotted by reference temperature (x-axis) and results were reported according to sample temperatures. Briefly, a sample of biripant Form H was heated from about 25° C. to about 400° C. […] Between about 340° C. and 400° C., weight loss was observed, corresponding to the thermal decomposition of birinapant.

[4] = Stability studies under elevated temperature and relative humidity; crystalline form by XRPD, birefringence by polarized light microscopy; remark: listed apart in the source
[5] = target RH 95.0%, sample RH 95.7%

For `CC[C@H](NC(=O)[C@H](C)NC)C(=O)N1C[C@@H](O)C[C@H]1Cc1c(-c2[nH]c3cc(F)ccc3c2C[C@@H]2C[C@H](O)CN2C(=O)[C@H](CC)NC(=O)[C@H](C)NC)[nH]c2cc(F)ccc12` [birinapant Form H, (2S,2'S)—N,N′-((2S,2'S)-((3S,3'S,5R,5′R)-((6,6′-difluoro-1H,1′H-[2,2′-biindole]-3,3′-diyl)bis(methylene))bis(3-hydroxypyrrolidine-5,1-diyl))bis(1-oxobutane-1,2-diyl))bis(2-(methylamino)propanamide)], the “appearance of the surface of the solid” value [1] was “discolored slightly”, the “purity of birinapant by HPLC after storage” value [1] was 99.9% and the Observation ([2]; 30° C., 62% RH, 17 d, B = birefringence) was “fines, B”. The Observation ([2]; 30° C., 62% RH, 105 d, B = birefringence) was “white fines, B”, the Observation ([2]; 40° C., 75% RH, 17 d, B = birefringence) was “fines, B” and the Observation ([2]; 40° C., 75% RH, 33 d) was “white solids”. For the same compound, the Observation ([2]; 40° C., 75% RH, 105 d, B = birefringence) was “white fines, B”, the Observation ([2]; 60° C., 17 d, B = birefringence) was “fines, B” and the Observation ([2]; 60° C., 33 d) was “white to off-white in color”. For the same compound, the Observation ([2]; 60° C., 105 d) was “off-white”, the Observation ([2]; 80° C., 17 d, B = birefringence) was “fines, B sample faint pale yellow” and the Observation ([2]; 80° C., 33 d) was “pale yellow in color”. The Observation ([2]; RT, 98% RH, 18 d, B = birefringence) was “fines, B sample faint pale yellow”, the Observation ([2]; Table 5: 30° C., 62% RH, 17 d, B = birefringence) was “fines, B” and the Observation ([2]; Table 5: 30° C., 62% RH, 105 d, B = birefringence) was “white fines, B”. The Observation ([2]; Table 5: 30° C., 62% RH, 182 d, power outage 1 hour on day 125) was “white solids^d”, the Observation ([2]; Table 5: 40° C., 75% RH, 17 d, B = birefringence) was “fines, B” and the Observation ([2]; Table 5: 40° C., 75% RH, 33 d) was “white solids”. The Observation ([2]; Table 5: 40° C., 75% RH, 105 d, B = birefringence) was “white fines, B”, the Observation ([2]; Table 5: 40° C., 75% RH, 182 d, power outage 1 hour on day 125) was “white solids^e” and the Observation ([2]; Table 5: 60° C., 17 d, B = birefringence) was “fines, B”. The Observation ([2]; Table 5: 60° C., 33 d) was “white to off-white in color”, the Observation ([2]; Table 5: 60° C., 105 d) was “off-white” and the Observation ([2]; Table 5: 60° C., 182 d, temperature excursions: 105° C. 3 hours on day 113, power outage 1 hour on day 125) was “off-white to pale yellow^c”. For the same compound, the Observation ([2]; Table 5: 80° C., 17 d, B = birefringence) was “fines, B sample faint pale yellow”, the Observation ([2]; Table 5: 80° C., 33 d) was “pale yellow in color” and the Observation ([2]; Table 5: RT, 53% RH, 18 d, B = birefringence) was “fines, B sample faint pale yellow”. The Observation ([2]; Table 5: RT, 98% RH, 18 d, B = birefringence) was “fines, B sample faint pale yellow”, the “Cycle 1 Sorp Mass Change” value ([3]; target RH 5.0%, sample RH 5.1%) was 0.000% and the “Cycle 1 Desorp Mass Change” value ([3]; target RH 5.0%, sample RH 5.5%) was 0.020%. The Hysteresis ([3]; target RH 15.0%) was 0.192, the “Cycle 1 Sorp Mass Change” value ([3]; target RH 15.0%, sample RH 15.6%) was 0.365% and the “Cycle 1 Desorp Mass Change” value ([3]; target RH 15.0%, sample RH 16.1%) was 0.557%. The Hysteresis ([3]; target RH 25.0%) was 0.197, the “Cycle 1 Sorp Mass Change” value ([3]; target RH 25.0%, sample RH 25.1%) was 0.732% and the “Cycle 1 Desorp Mass Change” value ([3]; target RH 25.0%, sample RH 25.6%) was 0.929%. The Hysteresis ([3]; target RH 35.0%) was 0.237, the “Cycle 1 Sorp Mass Change” value ([3]; target RH 35.0%, sample RH 34.7%) was 1.001% and the “Cycle 1 Desorp Mass Change” value ([3]; target RH 35.0%, sample RH 35.3%) was 1.238%. The Hysteresis ([3]; target RH 45.0%) was 0.308, the “Cycle 1 Sorp Mass Change” value ([3]; target RH 45.0%, sample RH 45.0%) was 1.224% and the “Cycle 1 Desorp Mass Change” value ([3]; target RH 45.0%, sample RH 45.6%) was 1.532%. For the same compound, the Hysteresis ([3]; target RH 55.0%) was 0.379, the “Cycle 1 Sorp Mass Change” value ([3]; target RH 55.0%, sample RH 54.7%) was 1.436% and the “Cycle 1 Desorp Mass Change” value ([3]; target RH 55.0%, sample RH 55.4%) was 1.815%. For the same compound, the Hysteresis ([3]; target RH 65.0%) was 0.425, the “Cycle 1 Sorp Mass Change” value ([3]; target RH 65.0%, sample RH 64.7%) was 1.652% and the “Cycle 1 Desorp Mass Change” value ([3]; target RH 65.0%, sample RH 65.5%) was 2.078%. The Hysteresis ([3]; target RH 75.0%) was 0.428, the “Cycle 1 Sorp Mass Change” value ([3]; target RH 75.0%, sample RH 74.7%) was 1.908% and the “Cycle 1 Desorp Mass Change” value ([3]; target RH 75.0%, sample RH 75.3%) was 2.336%. For the same compound, the Hysteresis ([3]; target RH 85.0%) was 0.347, the “Cycle 1 Sorp Mass Change” value ([3]; target RH 85.0%, sample RH 84.9%) was 2.263% and the “Cycle 1 Desorp Mass Change” value ([3]; target RH 85.0%, sample RH 86.0%) was 2.610%. For the same compound, the “Cycle 1 Desorp Mass Change” value [3, 5] was 2.904%, the “Cycle 1 Sorp Mass Change” value [3, 5] was 2.904% and the “weight loss on heating (TGA)” value (TGA study) was “No weight loss”. The Observation ([4]; 245° C., 1 hr) was “light tan solids”, the Observation ([4]; RT, 53% RH, 18 d, B = birefringence) was “fines, B sample faint pale yellow” and the Observation ([4]; Table 5: 245° C., 1 hr) was “light tan solids”.
